Assay results published in patent publication US20050081267A1, “Novel genes for conditional cell ablation” (Bayer Bioscience N.V., priority 2001, published 2005).

Key:
[1] = tested on: leaves of the transgenic plants (Tobacco, Nicotiana tabacum) expressing ArgJ coding sequence under 35S promoter; assay: Drop experiment on leaves of 35S-ArgJ transgenic tobacco plants; type: in vivo; settings: 5 μl drops; dose of 4 mg/ml or 1 mg/ml; apparent 4 to 5 days after treatment; seven independent p35SARG transformants
From the text: The ArgJ coding sequence was recloned into the binary vector pROK1 under control of the Cauliflower Mosaic Virus 35S promoter sequence. The resulting plasmid p35SARG comprising the 35S promoter, ArgJ coding sequence and 35S terminator was transformed in Agrobacterium tumefaciens (strain ATHV) using standard methods. Tobacco (Nicotiana tabacum) leaf disks were transformed with the recombinant Agrobacteria according to the method of Horsch et al. (1985, Science 227:1229-1231) and selected on kanamycin medium. Seven independent transformants were regenerated. In a drop experiment, the leaves of the transgenic plants (and a number of control plants) were treated with 5 μl each of the following concentrations of N-acetyl- D, L-PPT: 4 mg/ml (=15 mM), 1 mg/ml (=3.75 mM), 0.4 mg/ml (=1.5 mM), 0.1 mg/ml (=0.38 mM). The treatment sites were examined for lightening or necrosis formation.

[2] = tested on: flower buds of the transgenic lines (Tobacco, Nicotiana tabacum) expressing ArgJ deacetylase under TA29 promoter; assay: Flower bud treatment to induce male-sterile flowers in TA29-ArgJ transgenic tobacco; type: in vivo; settings: 10 μl of 5 mg/ml solution (0.1% Genapol)
From the text: The ArgJ coding sequence was recloned into the binary vector pROK1 under control of the TA29 promoter of tobacco. The resulting plasmid pTA29ARG comprising the TA29 promoter, ArgJ coding sequence and 35S terminator was transformed in Agrobacterium tumefaciens (strain ATHV) using standard methods. Tobacco (Nicotiana tabacurn) leaf disks were transformed with the recombinant Agrobacteria according to the method of Horsch et al. (1985, above) and selected on kanamycin medium.
To investigate tapetum-specific expression of the ArgJ deacetylase, flower buds of the transgenic lines were treated with N-acetyl-PPT to induce male-sterile flowers.
In each case only one side of the inflorescence ([…] of the developing flower bud) was treated with N-acetyl PPT, in order to eliminate possible contamination with natural male-sterility phenomena. Treatment was carried out on flower buds of 2 to 4 mm large. Transgenic and control plants were treated with 10 μl of 5 mg/ml N-acetyl PPT solution (0.1% Genapol as wetting agent). After the blooming of the buds (about 9-11 days after conclusion of the treatment) the plants were investigated for the occurrence of male-sterile flowers.

CC(=O)NC(CCP(C)(=O)O)C(=O)O [N-acetyl- D, L-PPT, N-acetyl-phosphinothricin]
lightening or necrosis formation at treatment sites (leaf damage) [1]: Four plants showed clearly visible leaf damage
occurrence of male-sterile flowers, control or wild-type tobacco flowers ([2]; control and wild-type plants): no reaction was seen
occurrence of male-sterile flowers from drop-treated flowerbuds, transgenic plants ([2]; flower buds 2 to 4 mm, examined about 9-11 days after treatment, pTA29ARG transgenic plants): In three out of seven transgenic plants, male-sterile flowers developed
